Test results from patent publication US20050197350A1, “Novel quinoline, tetrahydroquinazoline, and pyrimidine derivatives and methods of treatment related to the use thereof” (TAISHO PHARMACEUTICAL CO., LTD., priority 2003, published 2005).
Like-named read-outs stand apart in the source and are kept apart here.

Test system: MCH receptors
Test: MCH receptor activity class (method not given)
[1] = MCH receptor activity class 1-3 (percent of control at 10^-7 M or IC50)
[2] = activity class per percent of control at 10^-7 M or IC50
[3] = class by percent of control at 10^−7 M or IC50
[4] = class 1-3 by percent of control at 10^-7 M or IC50
[5] = class by percent of control at 10^-7 M or IC50
[6] = MCH receptor, class by percent of control at 10^-7 M or IC50
[7] = activity class 1-3: percent of control at 10^-7 M or IC50

In the case of `CN(C)c1ccnc(N[C@H]2CC[C@@H](CNC(=O)Nc3ccccc3C(F)(F)F)CC2)n1` [compound 2412], the class [1] is reported as 3 (Class 3 The value of percent of control at 10^−7 M was more than 60% or the value of IC50 was more than 200 nM.).

For `COc1cc(C(=O)NC[C@H]2CC[C@@H](Nc3nc4c(c(N(C)C)n3)CCCC4)CC2)ccc1[N+](=O)[O-]` [compound 1077], the class [2] was 3 (Class 3 The value of percent of control at 10^−7 M was more than 60% or the value of IC50 was more than 200 nM.).

In the case of `Cc1cnc(N[C@H]2CC[C@@H](NC(=O)c3ccccc3Br)CC2)nc1N(C)C` [compound 2914], the class [3] is reported as 3 (Class 3 The value of percent of control at 10^−7 M was more than 60% or the value of IC50 was more than 200 nM.).

`Cc1cc(C(=O)N[C@H]2CC[C@@H](Nc3nc4c(c(N(C)C)n3)CCCC4)CC2)n(C)n1` [compound 539] was tested, and the class [4] was 2 (Class 2: The value of percent of control at 10^−7 M was from 40% to 60% or the value of IC′50 was from 50 nM to 200 nM.).

In the case of `Cc1nc(N[C@H]2CC[C@@H](NC(=O)C(O)c3cc(F)cc(F)c3)CC2)nc(N(C)C)c1C` (relative stereo) [compound 2829, 2-(3,5-difluorophenyl)-N-(cis-4-{[4-(dimethylamino)-5,6-dimethylpyrimidin-2-yl]amino}cyclohexyl)-2-hydroxyacetamide], the class [3] is reported as 2 (Class 2: The value of percent of control at 10^−7 M was from 40% to 60% or the value of IC′50 was from 50 nM to 200 nM.).

With `Cc1c(NC(=O)NC[C@H]2CC[C@@H](Nc3cc(N(C)C)c4ccccc4n3)CC2)cccc1[N+](=O)[O-]` [compound 2381, N-[(cis-4-{[4-(dimethylamino)quinolin-2-yl]amino}cyclohexyl)methyl]-N′-(2-methyl-3-nitrophenyl)urea] the class [1] was 2 (Class 2: The value of percent of control at 10^−7 M was from 40% to 60% or the value of IC′50 was from 50 nM to 200 nM.).

`Cc1cccc(CNC(=O)[C@H]2CC[C@@H](Nc3nc(C)cc(N(C)C)n3)CC2)c1` [Example 2586, cis-4-{[4-(dimethylamino)-6-methylpyrimidin-2-yl]amino}-N-(3-methylbenzyl)cyclohexanecarboxamide] showed a class of 1.

In the case of `CN(C)c1cc(N[C@H]2CC[C@@H](NC(=O)c3ccc(-c4ccc(Cl)cc4[N+](=O)[O-])o3)CC2)nc2ccccc12` [compound 676, 5-(4-chloro-2-nitrophenyl)-N-(cis-4-{[4-(dimethylamino)quinolin-2-yl]amino}cyclohexyl)-2-furamide], the class [5] is reported as 2 (Class 2: The value of percent of control at 10^−7 M was from 40% to 60% or the value of IC′50 was from 50 nM to 200 nM.).

`Cc1ccc(Cl)cc1NC(=S)N[C@H]1CC[C@@H](Nc2nc3c(c(N(C)C)n2)CCCC3)CC1` [compound 1994] was tested, and the class [6] was 3 (Class 3 The value of percent of control at 10^−7 M was more than 60% or the value of IC50 was more than 200 nM.).

In the case of `CN(C)c1nc(N[C@H]2CC[C@@H](CNC(=O)Nc3ccccc3I)CC2)nc2c1CCCC2` [compound 2470], the class [1] is reported as 3 (Class 3 The value of percent of control at 10^−7 M was more than 60% or the value of IC50 was more than 200 nM.).

With `CCCCCC(=O)NC[C@H]1CC[C@@H](Nc2cc(N(C)C)c3ccccc3n2)CC1` [compound 167] the class [6] was 3 (Class 3 The value of percent of control at 10^−7 M was more than 60% or the value of IC50 was more than 200 nM.).

`Cc1cnc(N[C@H]2CC[C@@H](NC(=O)CN(C)c3ccc(F)cc3)CC2)nc1N(C)C` [compound 2944] was tested, and the class [3] was 1 (Class 1: The value of percent of control at 10^−7 M was less than 40% or the value of IC50 was less than 50 nM.).

For `CC(NC(=O)N[C@H]1CC[C@@H](Nc2nc3c(c(N(C)C)n2)CCCC3)CC1)c1ccc(Br)cc1` (relative stereo) [compound 1728, N-[1-(4-bromophenyl)ethyl]-N′-(cis-4-{[4-(dimethylamino)-5,6,7,8-tetrahydroquinazolin-2-yl]amino}cyclohexyl)urea], the class [5] was 2 (Class 2: The value of percent of control at 10^−7 M was from 40% to 60% or the value of IC′50 was from 50 nM to 200 nM.).

For `CN(C)c1ccnc(N[C@H]2CC[C@@H](CNC(=O)c3cccc(Cl)c3Cl)CC2)n1` [compound 442], the class [4] was 3 (Class 3 The value of percent of control at 10^−7 M was more than 60% or the value of IC50 was more than 200 nM.).

In the case of `CN(C)c1nc(N[C@H]2CC[C@@H](NC(=O)c3cc4ccccc4s3)CC2)nc2c1CCCC2` [compound 530], the class [4] is reported as 3 (Class 3 The value of percent of control at 10^−7 M was more than 60% or the value of IC50 was more than 200 nM.).

In the case of `CCc1cccc2c(C(CC(=O)c3ccc(C(C)(C)C)cc3)C(=O)N[C@H]3CC[C@@H](Nc4cc(N(C)C)c5ccccc5n4)CC3)c[nH]c12` (relative stereo) [compound 720], the class [5] is reported as 3 (Class 3 The value of percent of control at 10^−7 M was more than 60% or the value of IC50 was more than 200 nM.).

`CN(C)c1ccnc(N[C@H]2CC[C@@H](NC(=O)Cc3ccc(Cl)c(Cl)c3)CC2)n1` [compound 838] was tested, and the class [5] was 3 (Class 3 The value of percent of control at 10^−7 M was more than 60% or the value of IC50 was more than 200 nM.).

`COc1cccc(C(=O)N[C@H]2CC[C@@H](Nc3nc(C)cc(N(C)C)n3)CC2)c1` [Example 2564, N-(cis-4-{[4-(dimethylamino)-6-methylpyrimidin-2-yl]amino}cyclohexyl)-3-methoxybenzamide] gave a class of 1.

For `Cc1ccc(CNC[C@H]2CC[C@@H](Nc3cc(N(C)C)c4ccccc4n3)CC2)cc1` [compound 1186], the class [5] was 3 (Class 3 The value of percent of control at 10^−7 M was more than 60% or the value of IC50 was more than 200 nM.).

In the case of `CN(C)c1nc(N[C@H]2CC[C@@H](CNC(=O)c3cccc(Cl)c3F)CC2)nc2c1CCCC2` [compound 621], the class [5] is reported as 3 (Class 3 The value of percent of control at 10^−7 M was more than 60% or the value of IC50 was more than 200 nM.).

In the case of `CCOC(=O)c1[nH]c2cc(Cl)cc(Cl)c2c1CN[C@H]1CC[C@@H](Nc2nccc(N(C)C)n2)CC1` [compound 1236], the class [5] is reported as 1 (Class 1: The value of percent of control at 10^−7 M was less than 40% or the value of IC50 was less than 50 nM.).

With `COc1ccc(NC(=S)N[C@H]2CC[C@@H](Nc3cc(N(C)C)c4ccccc4n3)CC2)c(OC)c1` [compound 2170] the class [5] was 2 (Class 2: The value of percent of control at 10^−7 M was from 40% to 60% or the value of IC′50 was from 50 nM to 200 nM.).

For `CN(C)c1cc(N[C@H]2CC[C@@H](NC(=O)CCC3CCCCC3)CC2)nc2ccccc12` [compound 695], the class [5] was 3 (Class 3 The value of percent of control at 10^−7 M was more than 60% or the value of IC50 was more than 200 nM.).

In the case of `CN(C)c1nc(N[C@H]2CC[C@@H](NC(=O)c3cc(Cl)cc(Cl)c3)CC2)nc2c1CCCC2` [compound 466, 3,5-dichloro-N-(cis-4-{[4-(dimethylamino)-5,6,7,8-tetrahydroquinazolin-2-yl]amino}cyclohexyl)benzamide], the class [4] is reported as 1 (Class 1: The value of percent of control at 10^−7 M was less than 40% or the value of IC50 was less than 50 nM.).

With `CN(C)c1nc(N[C@H]2CC[C@@H](NC(=O)Nc3c(Cl)cc(Cl)cc3Cl)CC2)nc2c1CCCC2` [compound 1669] the class [7] was 2 (Class 2: The value of percent of control at 10^−7 M was from 40% to 60% or the value of IC′50 was from 50 nM to 200 nM.).

In the case of `Cc1ccc(CNC[C@H]2CC[C@@H](Nc3nc4c(c(N(C)C)n3)CCCC4)CC2)s1` [compound 1422], the class [5] is reported as 3 (Class 3 The value of percent of control at 10^−7 M was more than 60% or the value of IC50 was more than 200 nM.).

In the case of `COc1cc([N+](=O)[O-])ccc1NC(=S)N[C@H]1CC[C@@H](Nc2nccc(N(C)C)n2)CC1` [compound 2314], the class [1] is reported as 3 (Class 3 The value of percent of control at 10^−7 M was more than 60% or the value of IC50 was more than 200 nM.).

In the case of `CN(C)c1cc(N[C@H]2CC[C@@H](NC(=S)Nc3ccc(Br)cc3OC(F)(F)F)CC2)nc2ccccc12` [compound 2307], the class [1] is reported as 3 (Class 3 The value of percent of control at 10^−7 M was more than 60% or the value of IC50 was more than 200 nM.).

For `COc1cccc(CNC[C@H]2CC[C@@H](Nc3nccc(N(C)C)n3)CC2)c1O` [compound 1317], the class [5] was 3 (Class 3 The value of percent of control at 10^−7 M was more than 60% or the value of IC50 was more than 200 nM.).

With `Cc1noc(-c2ccccc2)c1NC(=O)N[C@H]1CC[C@@H](Nc2nc3c(c(N(C)C)n2)CCCC3)CC1` [compound 1691] the class [7] was 1 (Class 1: The value of percent of control at 10^−7 M was less than 40% or the value of IC50 was less than 50 nM.).

In the case of `CN(C)c1nc(N[C@H]2CC[C@@H](NC(=O)c3ccc([N+](=O)[O-])cc3F)CC2)nc2c1CCCC2` [compound 1049], the class [2] is reported as 3 (Class 3 The value of percent of control at 10^−7 M was more than 60% or the value of IC50 was more than 200 nM.).

`COC(=O)N[C@H]1CC[C@@H](Nc2nccc(N(C)C)n2)CC1` [compound 1635] was tested, and the class [7] was 3 (Class 3 The value of percent of control at 10^−7 M was more than 60% or the value of IC50 was more than 200 nM.).

For `COc1ccc(C(=O)N[C@H]2CC[C@@H](Nc3nccc(N(C)C)n3)CC2)cc1OC` [compound 322], the class [5] was 3 (Class 3 The value of percent of control at 10^−7 M was more than 60% or the value of IC50 was more than 200 nM.).

`COc1cc(OC)c(OC)cc1CNC[C@H]1CC[C@@H](Nc2cc(N(C)C)c3ccccc3n2)CC1` [compound 1175] was tested, and the class [5] was 2 (Class 2: The value of percent of control at 10^−7 M was from 40% to 60% or the value of IC′50 was from 50 nM to 200 nM.).

In the case of `CN(C)c1cc(N[C@H]2CC[C@@H](NC(=O)[C@H](CCCCNC(=O)c3ccccc3)NC(=O)c3ccccc3)CC2)nc2ccccc12` (relative stereo) [compound 704], the class [5] is reported as 3 (Class 3 The value of percent of control at 10^−7 M was more than 60% or the value of IC50 was more than 200 nM.).

For `COc1cccc(CC(=O)NC[C@H]2CC[C@@H](Nc3nc4c(c(N(C)C)n3)CCCC4)CC2)c1` [compound 629], the class [5] was 3 (Class 3 The value of percent of control at 10^−7 M was more than 60% or the value of IC50 was more than 200 nM.).

In the case of `CN(C)c1nc(N[C@H]2CC[C@@H](NC(=O)Nc3ccccc3C#N)CC2)nc2c1CCCC2` [compound 1915], the class [6] is reported as 3 (Class 3 The value of percent of control at 10^−7 M was more than 60% or the value of IC50 was more than 200 nM.).
